Measurements: patent US20100249071A1, “Modulators of S1P and Methods of Making And Using” (Exelixis, Inc., priority 2009, published 2010)
Where two headings read alike, the source gives them in different places.

Columns and labels:
S1P1 = target: T1, S1P1 (Homo sapiens, UniProt P21453); experiment: Tango β-arrestin recruitment assay in U2OS cells (Assay 2b); format: cell-based
T1 construct: host or cells: U2OS
Text: For the Tango™ β-arrestin recruitment assay, the cytoplasmic C-terminus of S1P1 was tethered to the tTA transcriptional activator with a linker that contains a cleavage site for the N1a protease from tobacco etch virus (TEV protease). The C-terminus of the human β-arrestin2 protein was fused to TEV protease. Binding of an agonist recruits the βl -arrestin-TEV fusion protein to the receptor resulting in cleavage of the linker and released of tTA to enter the nucleus and subsequently activated a tTA-dependent luciferase reporter gene.
Assay 2b: Alternatively, U2OS cells expressing the reporter gene and S1P1 (Invitrogen) were added to the wells of a 384-well white opaque bottom assay plate (PerkinElmer) at […]. The cells were serum starved for 48 h in Freestyle medium (Invitrogen). Test compounds were tested at maximum concentrations of 1 μM for the agonist assay. Compounds were diluted in DMSO (10 concentration points, 3-fold each) and added to the assay plate at a 1% final DMSO concentration. The efficacy control was 1 μM S1P (Avanti). For each compound, there were duplicate assay plates and each assay plate had duplicate wells per concentration point. The plate was incubated overnight at 37° C. The GeneBLAzer β-lactamase assay reagent (Invitrogen) was added and the plates were incubated for an additional 2 h at room temperature. Fluorescence was measured using an EnVision plate reader (PerkinElmer, Waltham, Mass.) at an excitation wavelength of 409 nm and emission wavelengths of 460 nm and 530 nm. The emission intensity at each wavelength was background subtracted against wells containing medium only and the F460 nm/F530 nm ratio determined for each concentration of the test compounds. Percent activity was calculated as [(test compound ratio−DMSO ratio)/(positive control ratio−DMSO ratio)*100], where the positive control and DMSO ratios are from cells incubated with the efficacy control 1 μM S1P and 1% DMSO, respectively. The percent activities were plotted against compound concentration to determine EC50 using XLFit (IDBS).

[1] = target: T2, hS1P1R (hEdg1) membrane protein (Homo sapiens, UniProt P21453); experiment: hS1P1R GTPγS binding assay (Assay 3a); format: biochemical
T2 construct: purchased Lonza
Procedure: Assay 3a: The hS1P1R GTPγS binding assay was carried out at room temperature in 96 well non-binding surface assay plates. The reaction in each well contained 4 μg hS1P1R (hEdg1) membrane protein (Lonza), 30 μM GDP, 0.1 nM [^35S]GTPγS, 0.25% fatty acid free BSA, and serially diluted hS1P1R agonist compound in 200 μL assay buffer (25 mM Tris-HCl PH 7.9, 100 mM NaCl, 3 mM MgCl2, and 0.2 mM EGTA). After one hour of incubation, 0.9 mg of WGA (Wheat Germ Agglutinin) SPA beads in 50 μL of assay buffer was added to each well. The SPA beads were spun down after an additional one hour incubation. The radioactivity of the bound GTPγS was counted by reading the assay plate using a MicroBeta.

[2] = target: T3, hS1PR5 (hEdg8) membrane protein (Homo sapiens, UniProt Q9H228); experiment: hS1P5R GTPγS binding assay (Assay 4); format: biochemical
T3 construct: expressed in transfected cells; host or cells: CHO
Procedure: The hS1PR5 GTPγS binding assay was carried out at room temperature in 96-well non-binding surface assay plates. The reaction in each well contained 5 μg hS1PR5 (hEdg8) membrane protein from CHO cells expressing hS1PR5, 30 μM GDP, 0.1 nM [^35S]GTPγS, 0.25% fatty acid free BSA, and serially-diluted Compound of the Invention in 200 μL assay buffer (25 mM Tris-HCl PH 7.9, 100 mM NaCl, 3 mM MgCl2, and 0.2 mM EGTA). After one hour of incubation, 0.9 mg of WGA (Wheat Germ Agglutinin) SPA beads in 50 μL of assay buffer was added to each well. The SPA beads were spun down after an additional one hour incubation. The radioactivity of the bound GTPγS was counted by reading the assay plate using a MicroBeta.

T2 sequence (P21453 whole entry): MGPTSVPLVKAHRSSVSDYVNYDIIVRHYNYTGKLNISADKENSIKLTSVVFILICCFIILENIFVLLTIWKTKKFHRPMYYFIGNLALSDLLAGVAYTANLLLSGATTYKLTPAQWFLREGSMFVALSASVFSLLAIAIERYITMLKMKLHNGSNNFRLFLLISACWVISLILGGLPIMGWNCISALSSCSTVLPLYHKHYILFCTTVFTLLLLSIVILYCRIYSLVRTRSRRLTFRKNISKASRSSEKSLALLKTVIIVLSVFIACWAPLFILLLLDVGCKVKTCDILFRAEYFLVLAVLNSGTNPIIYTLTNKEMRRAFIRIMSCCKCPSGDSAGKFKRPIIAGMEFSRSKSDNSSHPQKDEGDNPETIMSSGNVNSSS
T3 sequence (Q9H228 whole entry): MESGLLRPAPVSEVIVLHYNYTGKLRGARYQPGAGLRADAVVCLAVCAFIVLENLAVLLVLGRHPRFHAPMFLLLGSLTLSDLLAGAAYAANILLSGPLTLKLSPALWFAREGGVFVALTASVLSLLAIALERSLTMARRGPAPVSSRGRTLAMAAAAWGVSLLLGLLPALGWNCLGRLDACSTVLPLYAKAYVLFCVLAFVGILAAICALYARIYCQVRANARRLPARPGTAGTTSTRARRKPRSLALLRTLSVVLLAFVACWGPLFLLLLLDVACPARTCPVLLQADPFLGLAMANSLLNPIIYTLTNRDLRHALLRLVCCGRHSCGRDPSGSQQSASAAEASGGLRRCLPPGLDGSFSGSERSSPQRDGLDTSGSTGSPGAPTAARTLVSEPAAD
T1 sequence (P32121 whole entry): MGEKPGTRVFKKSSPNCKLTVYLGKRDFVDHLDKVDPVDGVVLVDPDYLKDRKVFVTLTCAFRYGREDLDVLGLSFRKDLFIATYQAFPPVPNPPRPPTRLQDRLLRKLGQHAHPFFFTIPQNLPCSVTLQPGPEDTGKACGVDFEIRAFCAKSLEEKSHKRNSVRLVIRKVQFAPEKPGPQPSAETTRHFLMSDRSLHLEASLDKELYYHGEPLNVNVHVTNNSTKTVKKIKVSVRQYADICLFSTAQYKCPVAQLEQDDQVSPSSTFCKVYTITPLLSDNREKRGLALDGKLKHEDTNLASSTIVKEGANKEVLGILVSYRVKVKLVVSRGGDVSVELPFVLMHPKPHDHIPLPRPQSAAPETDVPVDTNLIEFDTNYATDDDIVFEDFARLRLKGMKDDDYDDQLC
T1 sequence (P21453 whole entry): as the sequence (P21453 whole entry) above

**Q.** How did the EC50 (S1P1; * = rEC50 measured rather than EC50, read-out: Assay 2b rEC50 (relative EC50, cells marked *)) turn out when `Cc1cc(-c2nnc(-c3cc(F)c(OC[C@H](N)[C@H](C)O)cc3Cl)s2)cnc1NC(C)C` [Entry 66, (2S,3S)-3-amino-4-{[5-chloro-2-fluoro-4-(5-{5-methyl-6-[(1-methylethyl)amino]pyridin-3-yl}-1,3,4-thiadiazol-2-yl)phenyl]oxy}butan-2-ol] was run?
**A.** 250 to 2800 nM

**Q.** `CC(C)Oc1cc(Br)cc(-c2nnc(-c3cc(F)c(OC[C@H](N)CO)cc3Cl)s2)c1` [Entry 27, (2R)-2-amino-3-{[4-(5-{3-bromo-5-[(1-methylethyl)oxy]phenyl}-1,3,4-thiadiazol-2-yl)-5-chloro-2-fluorophenyl]oxy}propan-1-ol] was tested. Which EC50 (S1P1; read-out: Assay 2b EC50) did it give?
**A.** 250 to 2800 nM

**Q.** And the EC50 [1]?
**A.** 50 to 250 nM

**Q.** Which EC50 (S1P1; read-out: Assay 2b EC50) does the source give for `CCCOc1ccc(-c2nnc(-c3cc(F)c(OC[C@H](N)CO)cc3Cl)s2)cc1` [Entry 91, (2R)-2-amino-3-[(5-chloro-2-fluoro-4-{5-[4-(propyloxy)phenyl]-1,3,4-thiadiaozl-2-yl}phenyl)oxy]propan-1-ol] here?
**A.** 250 to 2800 nM

**Q.** What about the EC50 [2] of the same compound?
**A.** 250 to 2800 nM

**Q.** What about the EC50 [1] of the same compound?
**A.** 50 to 250 nM

**Q.** What does the source list for `N[C@H](CO)COc1cc(Cl)c(-c2nnc(-c3ccc(OC(F)(F)F)cc3)s2)cc1F` [Entry 7, (2R)-2-amino-3-{[5-chloro-2-fluoro-4-(5-{4-[(trifluoromethyl)oxy]phenyl}-1,3,4-thiadiazol-2-yl)phenyl]oxy}propan-1-ol]?
**A.** EC50 (S1P1; read-out: Assay 2b EC50): 250 to 2800 nM; EC50 [1]: 50 to 250 nM

**Q.** What does the source list for “(1R,2R)-2-amino-3-{[5-chloro-2-fluoro- 4-(5-{2-methyl-6-[(1- methylethyl)amino]pyridin-4-yl}-1,3,4- thiadiazol-2-yl)phenyl]oxy}-1- methylpropyl dihydrogen phosphate [Entry 100]”?
**A.** EC50 (S1P1; read-out: Assay 2b EC50): ≤ 10 nM; EC50 [2]: 10 to 50 nM; EC50 [1]: ≤ 10 nM

**Q.** How did the EC50 (S1P1; read-out: Assay 2b EC50) turn out when `N[C@H](CO)COc1cc(Cl)c(-c2nnc(-c3cc(-c4ccccc4)c(C(F)(F)F)s3)s2)cc1F` [Entry 84, (2R)-2-amino-3-[(5-chloro-2-fluoro-4-{5-[4-phenyl-5-(trifluoromethyl)-2-thienyl]-1,3,4-thiadiazol-2-yl}phenyl)oxy]propan-1-ol] was run?
**A.** 250 to 2800 nM

**Q.** `N[C@H](CO)COc1cc(Cl)c(-c2nnc(-c3cc(Cl)cc(Br)c3)s2)cc1F` [Entry 23, (2R)-2-amino-3-({4-[5-(3-bromo-5-chlorophenyl)-1,3,4-thiadiazol-2-yl]-5-chloro-2-fluorophenyl}oxy)propan-1-ol] was tested. Which EC50 (S1P1; read-out: Assay 2b EC50) did it give?
**A.** 250 to 2800 nM

**Q.** And the EC50 [2]?
**A.** 250 to 2800 nM

**Q.** And the EC50 [1]?
**A.** 250 to 2800 nM

**Q.** Which EC50 (S1P1; read-out: Assay 2b EC50) does the source give for `N[C@H](CO)COc1cc(Cl)c(-c2nnc(-c3ccc(OC(F)(F)F)c(Cl)c3)s2)cc1F` [Entry 8, (2R)-2-amino-3-{[5-chloro-4-(5-{3-chloro-4-[(trifluoromethyl)oxy]phenyl}-1,3,4-thiadiazol-2-yl)-2-fluorophenyl]oxy}propan-1-ol] here?
**A.** 250 to 2800 nM

**Q.** What about the EC50 [1] of the same compound?
**A.** 50 to 250 nM

**Q.** `NC(CO)COc1cc(Cl)c(-c2nnc(-c3cn4ccsc4n3)s2)cc1F` (stereo not shown) [Entry 4, 2-amino-3-{[5-chloro-2-fluoro-4-(5-imidazo[2,1-b][1,3]thiazol-6-yl-1,3,4-thiadiazol-2-yl)phenyl]oxy}propan-1-ol] was tested. Which EC50 (S1P1; read-out: Assay 2b EC50) did it give?
**A.** 50 to 250 nM

**Q.** What about the EC50 [1] of the same compound?
**A.** > 10000 nM

**Q.** `CC(C)Nc1cc(-c2nnc(-c3cc(F)c(OC[C@H](N)[C@H](C)O)cc3Cl)s2)ccn1` [Entry 58, (2S,3S)-3-amino-4-{[5-chloro-2-fluoro-4-(5-{2-[(1-methylethyl)amino]pyridin-4-yl}-1,3,4-thiadiazol-2-yl)phenyl]oxy}butan-2-ol] was tested. Which EC50 (S1P1; read-out: Assay 2b EC50) did it give?
**A.** 250 to 2800 nM

**Q.** What about the EC50 [2] of the same compound?
**A.** 250 to 2800 nM

**Q.** And the EC50 [1]?
**A.** 50 to 250 nM

**Q.** For `N[C@H](CO)COc1cc(Cl)c(-c2nnc(-c3cc(Br)cc(Br)c3)s2)cc1F` [Entry 30, (2R)-2-amino-3-({5-chloro-4-[5-(3,5-dibromophenyl)-1,3,4-thiadiazol-2-yl]-2-fluorophenyl}oxy)propan-1-ol], which EC50 (S1P1; read-out: Assay 2b EC50) is on record?
**A.** 250 to 2800 nM

**Q.** And the EC50 [2]?
**A.** 2800 to 10000 nM

**Q.** What about the EC50 [1] of the same compound?
**A.** 250 to 2800 nM

**Q.** `CC(C)Oc1ccc(-c2nnc(-c3cc(F)c(OC[C@H](N)CO)cc3Cl)s2)cc1F` [Entry 42, (2R)-2-amino-3-{[5-chloro-2-fluoro-4-(5-{3-fluoro-4-[(1-methylethyl)oxy]phenyl}-1,3,4-thiadiazol-2-yl)phenyl]oxy}propan-1-ol] was tested. Which EC50 (S1P1; read-out: Assay 2b EC50) did it give?
**A.** 50 to 250 nM

**Q.** What about the EC50 [2] of the same compound?
**A.** 50 to 250 nM

**Q.** And the EC50 [1]?
**A.** 10 to 50 nM
